In patent US12344610B2, “APOL1 inhibitors and methods of use” (Maze Therapeutics, Inc., priority 2022, dated 2025):

Legend:
Format in all cases: cell-based
APOL1 G2 = biological target: T1, APOL1 G2 (Homo sapiens, UniProt O14791, DEL388-389); experiment: APOL1-mediated calcium transport (calcium influx) assay, HEK T-REx/GCaMP6f/APOL1 G2 K6.3 cells, FLIPR TETRA; conditions: prevention of calcium influx; geometric mean of at least 2 assay runs; † = average of a technical replicate from a single assay run
T1 construct: expressed in transfected cells; host or cells: HEK293 T-REx clonal line stably expressing GCaMP6f (HEK T-REx/GCaMP6f/APOL1 G2 K6.3), doxycycline induced
T1 sequence (O14791 with tags, fused parts or gaps DEL388-389): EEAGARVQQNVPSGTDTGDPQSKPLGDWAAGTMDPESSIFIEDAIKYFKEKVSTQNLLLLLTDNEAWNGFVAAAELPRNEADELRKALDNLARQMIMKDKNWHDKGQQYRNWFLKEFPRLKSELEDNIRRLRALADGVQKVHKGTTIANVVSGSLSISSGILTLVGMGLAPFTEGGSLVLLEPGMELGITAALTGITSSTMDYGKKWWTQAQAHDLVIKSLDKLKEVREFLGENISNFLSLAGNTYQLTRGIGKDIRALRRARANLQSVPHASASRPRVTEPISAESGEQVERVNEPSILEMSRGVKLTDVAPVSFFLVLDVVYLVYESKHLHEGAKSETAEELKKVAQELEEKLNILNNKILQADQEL
Protocol: A HEK293 clonal cell line was generated to stably express GCaMP6f, a genetically encoded calcium indicator, and inducibly express APOL1 G2 (HEK T-REx/GCaMP6f/APOL1 G2 K6.3). Cells were maintained in the following standard complete medium: DMEM with 4.5 g/L glucose and sodium pyruvate (BioWhittaker, Lonza, BE12-614F), supplemented with 10% FBS Performance Plus (Gibco, 16000044), 1% penicillin-streptomycin (BioWhittaker, DE17-602E), 2 mM ultraglutamine-1 (BioWhittaker cat. BE 17-605/U1), 50 μg/mL Zeocin (InvivoGen, ant-zn), 2.5 μg/mL Blasticidin (InvivoGen, ant-bl-5), and 25 μg/mL Hygromycin (InvivoGen, ant-hg). Standard propagation conditions consisted of plating 9×10^6, 4×10^6, 2×10^6 cells in a T225 flasks to be processed after 2, 3, or 4 days, respectively.
A source plate was generated containing 20 serially diluted compounds in DMSO (duplicate 8-point dose response). Next, 0.8 μL of compounds were transferred from the source plate to a destination plate prefilled with 79.2 μL of Ca^2+ free Tyrode's buffer (130 mM NaCl, 5 mM KCl, 1 mM MgCl2, 5 mM NaHCO3, 20 mM HEPES at pH 7.4). The destination plate was placed on a plate shaker (5 seconds at 2000 rpm) to mix. […] All transfer and mixing steps were conducted with an CyBi®-Well dispenser.
Cells were split by gently washing with DPBS (Euroclone, ECB4004L), followed by a 5-minute incubation (humidified, 37° C. with 5% CO2) with trypsin-EDTA solution (Euroclone, ECB3052D). Detached cells were diluted with standard complete medium without selective agents, counted, and plated in a 384 MTP microplate (GR4332CPL, Twin Helix) (10,000 cells/well in 25 μl/well) using a MATRIX WellMate dispenser. Plates were placed into a humidified incubator (37° C. with 5% CO2) overnight. The following day, 20 μL of doxycycline (Sigma, D9891) at 20 ng/mL in standard complete medium was added to cells with a CyBi® Drop dispenser to induce APOL1 G2 expression. After a 6-hour incubation (humidified, 37° C. with 5% CO2), cells were washed 3 times with Ca^2+ free Tyrode's Buffer (130 mM NaCl, 5 mM KCl, 1 mM MgCl2, 5 mM NaHCO3, 20 mM HEPES at pH 7.4) using a BIOTEK Microplate washer, such that 10 μL of buffer remained in each well after the final wash. Assay plates were then stored at room temperature for 10 minutes. Next, 10 μL of diluted compounds were transferred to the assay plate from the 2× compound plate using a CyBi®-Well dispenser. Compound incubation was then carried out at room temperature for 10 minutes. The assay plate was transferred to the FLIPR^TETRA and 20 μL of 10 mM Ca^2+ (final concentration=5 mM) Tyrode's buffer was injected.
Unless otherwise specified, AC50 and values are reported as the geometric mean of at least 2 assay runs on separate days. Each run represents the average of a technical replicate, where each compound was assayed twice in the same plate. A superscript t symbol indicates a value from the average of a technical replicate from a single assay run, where each compound was assayed twice in the same plate.
The AC50 values in Table 39 below reflect the compound's ability to prevent calcium influx by inhibiting APOL1. […] Compounds in Table 39 are referred to by the corresponding Compound Number in Table 1, which is also referred to in the synthetic examples. When one or more of the numbered compounds are identified by stereochemistry (for example, (R)- or (S)-), the specific stereoisomer for which data is provided in Table 39 may be identified by the elution order of such compound as described in the synthetic examples. For example, Compounds 39 and 40 are associated with Step 5 of Example 13, where Compound 39 is the first eluting enantiomer, and Compound 40 is the second eluting enantiomer in the chiral separation of Compound 38. For Table 39 below, n/a represents “not available”.

[1] = test system: HEK293 cells overexpressing APOL1 G2; experiment: APOL1 G2 HEK293 cell rescue assay (reversal of cell death caused by overexpression of APOL1); conditions: Homo sapiens, HEK293, HEK293 overexpressing APOL1 G2; geometric mean of at least 2 assay runs; † = single assay run
In short: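 EC50 is the half-maximal effective concentration for reversing cell death driven by APOL1 G2 overexpression in HEK293 cells. Reported as geometric mean of at least 2 runs on separate days, each run averaging duplicate wells per plate; some values from a single run.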

[2] = test system: HEK293 clonal cell line overexpressing APOL1 G1; experiment: APOL1 G1 HEK293 cell rescue assay (Example B3); conditions: Homo sapiens, HEK293, HEK293 clonal line overexpressing APOL1 G1; geometric mean of at least 2 runs; † = single run; ¥ = concentration at 50% rescue estimated (no sigmoidal curve)
In short: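 HEK293 clonal line overexpressing APOL1 G1; EC50 is half-maximal reversal of APOL1-induced cell death. Values are the geometric mean of ≥2 runs on separate days, each run the average of duplicate wells. Where no sigmoidal curve could be fitted, the concentration giving 50% rescue was estimated.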

## CN1C(=O)C2(CCN(CCOc3ccc4c(c3)CCS4(=O)=O)CC2)c2ccccc21 [Compound 32, 5-(2-{1-methyl-2-oxo-1,2-dihydrospiro[indole-3,4′-piperidin]-1′-yl}ethoxy)-2,3-dihydro-1λ^6-benzothiophene-1,1-dione]
APOL1 G2
  AC50: 262 nM
[1]
  EC50: 785 nM
[2]
  EC50: 1860 nM

## CN1C(=O)Cc2cc(OCCN3CCC4(CC3)C(=O)N(C)c3ccccc34)ccc21 [Compound 33, 1-methyl-1′-{2-[(1-methyl-2-oxo-2,3-dihydro-1H-indol-5-yl)oxy]ethyl}-1,2-dihydrospiro[indole-3,4′-piperidin]-2-one]
APOL1 G2
  AC50: 218 nM
[1]
  EC50: 1070 nM
[2]
  EC50: > 3470 nM

## CN1C(=O)C2(CCN(CCOc3ccc4nccnc4c3)CC2)c2ccccc21 [Compound 34, 1-methyl-1′-[2-(quinoxalin-6-yloxy)ethyl]-1,2-dihydrospiro[indole-3,4′-piperidin]-2-one]
APOL1 G2
  AC50: 168 nM
[1]
  EC50: 1330 nM
[2]
  EC50: > 1960 nM

## CN1C(=O)C2(CCN(CCOc3ccc(N4CCCC4=O)cc3)CC2)c2ccccc21 [Compound 37, 1-methyl-1′-{2-[4-(2-oxopyrrolidin-1-yl)phenoxy]ethyl}-1,2-dihydrospiro[indole-3,4′-piperidin]-2-one]
APOL1 G2
  AC50: 327 nM
[1]
  EC50: 1280 nM
[2]
  EC50: 692 nM

## CC(c1ccc(OCCN2CCC3(CC2)C(=O)Nc2ccc(Cl)cc23)cc1)S(C)(=O)=O (stereo not drawn) [Compound 38, 5-chloro-1′-{2-[4-(1-methanesulfonylethyl)phenoxy]ethyl}-1,2-dihydrospiro[indole-3,4′-piperidin]-2-one]
APOL1 G2
  AC50: 307 nM
[1]
  EC50: 59 nM
[2]
  EC50: 222 nM

## CS(=O)(=O)CCCS(=O)(=O)c1ccc(OCCN2CCC3(CC2)C(=O)Nc2ccc(Cl)cc23)cc1 [Compound 41, 5-chloro-1′-{2-[4-(3-methanesulfonylpropanesulfonyl)phenoxy]ethyl}-1,2-dihydrospiro[indole-3,4′-piperidin]-2-one]
APOL1 G2
  AC50: 709 nM
[1]
  EC50: 97 nM
[2]
  EC50: 307 nM

## NC(=O)c1ccc(OCCN2CCC3(CC2)C(=O)Nc2ccc(Cl)cc23)cn1 [Compound 47, 5-(2-{5-chloro-2-oxo-1,2-dihydrospiro[indole-3,4′-piperidin]-1′-yl}ethoxy)pyridine-2-carboxamide]
APOL1 G2
  AC50: 641 nM
[1]
  EC50: 148 nM
[2]
  EC50: 399 nM

## CS(=O)(=O)c1ccc(OCCN2CCC3(CC2)C(=O)Nc2ccc(Cl)cc23)c(F)c1 [Compound 48, 5-chloro-1′-[2-(2-fluoro-4-methanesulfonylphenoxy)ethyl]-1,2-dihydrospiro[indole-3,4′-piperidin]-2-one]
APOL1 G2
  AC50: 567 nM
[1]
  EC50: 199 nM
[2]
  EC50: 445 nM

## CN(C)C(=O)c1ccc(OCCN2CCC3(CC2)C(=O)Nc2ccc(Cl)cc23)cn1 [Compound 51]
APOL1 G2
  AC50: 953 nM
[1]
  EC50: 214 nM
[2]
  EC50: 1250 nM

## CNC(=O)c1ccc(OCCN2CCC3(CC2)C(=O)Nc2ccc(Cl)cc23)cc1 [Compound 52, 4-(2-{5-chloro-2-oxo-1,2-dihydrospiro[indole-3,4′-piperidin]-1′-yl}ethoxy)-N-methylbenzamide]
APOL1 G2
  AC50: 615 nM
[1]
  EC50: 214 nM
[2]
  EC50: 1060 nM

## CS(=O)(=O)N1Cc2ccc(OCCN3CCC4(CC3)C(=O)Nc3ccc(Cl)cc34)cc2C1 [Compound 54, 5-chloro-1′-{2-[(2-methanesulfonyl-2,3-dihydro-1H-isoindol-5-yl)oxy]ethyl}-1,2-dihydrospiro[indole-3,4′-piperidin]-2-one]
APOL1 G2
  AC50: 804 nM
[1]
  EC50: 90.3 nM
[2]
  EC50: 386 nM

## CN1C(=O)C2(CCN(CCOc3ccc4c(c3)CCN(S(C)(=O)=O)C4)CC2)c2ccccc21 [Compound 55, 1′-{2-[(2-methanesulfonyl-1,2,3,4-tetrahydroisoquinolin-6-yl)oxy]ethyl}-1-methyl-1,2-dihydrospiro[indole-3,4′-piperidin]-2-one]
APOL1 G2
  AC50: < 284 nM
[1]
  EC50: 983 nM
[2]
  EC50: 1210 nM

## CC(=O)N1CCc2cc(OCCN3CCC4(CC3)C(=O)N(C)c3ccccc34)ccc2C1 [Compound 58, 1′-{2-[(2-acetyl-1,2,3,4-tetrahydroisoquinolin-6-yl)oxy]ethyl}-1-methyl-1,2-dihydrospiro[indole-3,4′-piperidin]-2-one]
APOL1 G2
  AC50: < 320 nM
[1]
  EC50: 1310 nM
[2]
  EC50: 2120 nM

## CC(=O)N1CCCc2cc(OCCN3CCC4(CC3)C(=O)Nc3ccc(C#N)cc34)ccc21 [Compound 59, 1′-{2-[(1-acetyl-1,2,3,4-tetrahydroquinolin-6-yl)oxy]ethyl}-2-oxo-1,2-dihydrospiro[indole-3,4′-piperidine]-5-carbonitrile]
APOL1 G2
  AC50: 879 nM
[1]
  EC50: 213 nM
[2]
  EC50: 422 nM

## CNC(=O)N1Cc2ccc(OCCN3CCC4(CC3)C(=O)Nc3ccc(Cl)cc34)cc2C1 [Compound 61, 5-(2-{5-chloro-2-oxo-1,2-dihydrospiro[indole-3,4′-piperidin]-1′-yl}ethoxy)-N-methyl-2,3-dihydro-1H-isoindole-2-carboxamide]
APOL1 G2
  AC50: 686 nM
[1]
  EC50: 267 nM
[2]
  EC50: 632 nM

## CN1C(=O)C2(CCN(CCOc3ccc(S(C)(=O)=O)cc3)CC2)c2ccccc21 [Compound 67, 1′-[2-(4-methanesulfonylphenoxy)ethyl]-1-methyl-1,2-dihydrospiro[indole-3,4′-piperidin]-2-one]
APOL1 G2
  AC50: 351 nM
[1]
  EC50: 802 nM
[2]
  EC50: 2860 nM

## CS(=O)(=O)c1ccc(OCCN2CCC3(CC2)C(=O)Nc2ccccc23)cc1 [Compound 73, 1′-[2-(4-methanesulfonylphenoxy)ethyl]-1,2-dihydrospiro[indole-3,4′-piperidin]-2-one]
APOL1 G2
  AC50: 161 nM
[1]
  EC50: 527 nM
[2]
  EC50: 3520 nM

## CS(=O)(=O)c1ccc(OCCN2CCC3(CC2)C(=O)Nc2ccc(C#N)cc23)cc1F [Compound 74, 1′-[2-(3-fluoro-4-methanesulfonylphenoxy)ethyl]-2-oxo-1,2-dihydrospiro[indole-3,4′-piperidine]-5-carbonitrile]
APOL1 G2
  AC50: 781 nM
[1]
  EC50: 167 nM
[2]
  EC50: 471 nM
